Reference: US4761414A, “Substituted 1H-pyrimido[1,2-a-]-pyrido[3,4-e]pyrazine 6 oxides” (G. D. Searle & Co., priority 1986, dated 1988)
In brackets after ≈: the same amount, converted by molar mass. Read-outs that look alike come from different tables or passages of the source.

Experiments:
B. fragilis NCTC 10581 = experiment: MIC/MBC against Bacteroides fragilis strain A (96-well microtitre plates, anaerobic chamber); format: cell-based; settings: Bacteroides fragilis; for MBC: NCTC10581, 99.9% reduction in viable count; for MIC: NCTC10581, 48 h, 48 hours, 37° C., anaerobic
Protocol: (§1) The screening panel utilized in this Example consisted of 5 strains of Bacteroides fragilis. All assays were carried out in 96-well microtitre plates. If an isolate was obtained from either a culture collection or clinical source, the isolate was immediately inoculated into Wilkens-Chalgren broth (Oxoid) and incubated at 37° C. in an anaerobic chamber in an atmosphere of 85% nitrogen, 10% carbon dioxide, and 5% hydrogen for 48 hours. At the end of this time, the viable count was about 10^12 organisms/ml broth. A 1 ml aliquot of each culture was placed in an ampoule and quick frozen in acetone-dry ice mixture and stored in liquid nitrogen. When an inoculum was utilized in an assay, one of the ampoules was thawed and diluted with fresh broth to yield a suspension having a count of 5×10^5 organisms/ml. A 100 μl aliquot of this suspension was inoculated into each well of the microtitre plate. A 2 mg sample of the test compound was dissolved in 0.2 ml of a suitable solvent such as dimethylsulfoxide, polyethylene glycol 200 or methanol. […] After addition of the test solution the final inoculum level was 10^5 cells/ml. The plates were incubated for 48 hours at 37° C. in the anaerobic chamber. The Minimum Inhibitory Concentration (MIC) was read visually. The MIC is defined as the lowest concentration at which there is no detectable growth. The Minimum Bactericidal Concentration (MBC) was determined by taking 50 μl aliquot from each well and placing it in fresh medium. […] The strains of Bacteroides fragilis utilized in the above procedure are identified by letter in accordance with the following legend: |A B. fragilis NCTC 10581

B. fragilis NCTC 9343 = experiment: MIC/MBC against Bacteroides fragilis strain B; format: cell-based; settings: for MBC: NCTC9343, 99.9% reduction in viable count; for MIC: NCTC9343, 48 h, 48 hours, 37° C., anaerobic
Protocol: as §1, with “|B” for “|A”, “9343” for “10581”

[1] = system: Bacteroides melanogenicus NCTC 9336; experiment: MIC vs panel of anaerobes; format: cell-based; settings: NCTC9336, procedures of Example 40
Peptococcous magnus = experiment: MIC vs panel of anaerobes; format: cell-based; settings: procedures of Example 40
Peptostreptococcus = experiment: MIC vs panel of anaerobes; format: cell-based; settings: procedures of Example 40
[2] = system: Propionebacterium acnes NCTC 737; experiment: MIC vs panel of anaerobes; format: cell-based; settings: procedures of Example 40
B. fragilis 23745 = settings: Bacteroides fragilis, 23745, in Mus musculus, po, 48 h, log CFU/ml liver homogenate, test compound
[3] = system: Campylobacter fetus ss. jejuni ATCC 29428; experiment: MIC vs panel of anaerobes; format: cell-based; settings: ATCC29428, procedures of Example 40
[4] = read-out: DOSE GIVING 1 LOG REDUCTION (molar), p.o., after infection and twice daily for 2 days
[5] = read-out: DOSE GIVING 1 LOG REDUCTION, p.o., after infection and twice daily for 2 days

Structure (SMILES) | MBC (B. fragilis NCTC 10581) | MIC (B. fragilis NCTC 10581) | MBC (B. fragilis NCTC 9343) | MIC (B. fragilis NCTC 9343) | MIC [1] | MIC (Peptococcous magnus) | MIC (Peptostreptococcus) | MIC [2] | ED (1 log reduction) (B. fragilis 23745; [4]) | ED (1 log reduction) (B. fragilis 23745; [5]) | MIC [3]
CC1(C)CN=C2C(c3ccccc3)=[N+]([O-])c3cnccc3N2C1 [Example 15, 2,3-Dihydro-2,2-dimethyl-5-phenyl-1H-pyrimido[1,2-a]pyrido[3,4-e]pyrazine 6-oxide] | < 0.8 µg/mL | < 0.8 µg/mL | < 0.8 µg/mL | < 0.8 µg/mL | 100 µg/mL (≈ 326 µM) | < 0.8 µg/mL | 100 µg/mL (≈ 326 µM) | > 100 µg/mL | 13.4 µmol/kg | 4.1 mg/kg | 
CC1(C)CN=C2C(c3ccccc3)=[N+]([O-])c3ccncc3N2C1 [Example 14, 2,3-Dihydro-2,2-dimethyl-5-phenyl-1H-pyrimido[1,2-a]pyrido[4,3-e]pyrazine 6-oxide] | 12.5 µg/mL (≈ 40.8 µM) | 6.2 µg/mL (≈ 20.2 µM) | 6.2 µg/mL (≈ 20.2 µM) | 3.1 µg/mL (≈ 10.1 µM) | 100 µg/mL (≈ 326 µM) | 100 µg/mL (≈ 326 µM) | 100 µg/mL (≈ 326 µM) | > 100 µg/mL |  |  | 100 µg/mL (≈ 326 µM)
CC1(C)CN=C2C(c3ccc(Cl)cc3)=[N+]([O-])c3cccnc3N2C1 [Example 18, 2,3-Dihydro-5-(4-chlorophenyl)-2,2-dimethyl-1H-pyrimido[1,2-a]pyrido[3,2-e]pyrazine 6-oxide] | < 0.8 µg/mL | < 0.8 µg/mL | < 0.8 µg/mL | < 0.8 µg/mL | 25 µg/mL (≈ 73.4 µM) | < 0.8 µg/mL | 25 µg/mL (≈ 73.4 µM) | 100 µg/mL (≈ 293 µM) | 53.4 µmol/kg | 17.4 mg/kg | 
CC1(C)CN=C2C(c3ccccc3)=[N+]([O-])c3cccnc3N2C1 [Example 16, 2,3-Dihydro-2,2-dimethyl-5-phenyl-1H-pyrimido[1,2-a]pyrido[3,2-e]pyrazine 6-oxide] | 3.1 µg/mL (≈ 10.1 µM) | 3.1 µg/mL (≈ 10.1 µM) | 1.5 µg/mL (≈ 4.9 µM) | 1.5 µg/mL (≈ 4.9 µM) | 25 µg/mL (≈ 81.6 µM) | < 0.8 µg/mL | 25 µg/mL (≈ 81.6 µM) | 100 µg/mL (≈ 326 µM) | 2.6 µmol/kg | 0.8 mg/kg | 
Cc1ccc(C2=[N+]([O-])c3cccnc3N3CC(C)(C)CN=C23)cc1 [Example 20, 2,3-Dihydro-2,2-dimethyl-5-(4-methylphenyl)-1H-pyrimido[1,2-a]pyrido[3,2-e]pyrazine 6-oxide] | < 0.8 µg/mL | < 0.8 µg/mL | 6.2 µg/mL (≈ 19.4 µM) | 6.2 µg/mL (≈ 19.4 µM) | 50 µg/mL (≈ 156 µM) | 25 µg/mL (≈ 78 µM) | 50 µg/mL (≈ 156 µM) | > 100 µg/mL | 13 µmol/kg | 4.2 mg/kg | 25 µg/mL (≈ 78 µM)
